Laboratory results: US6369101B1, “Therapeutic method to treat herpes virus infection” (Regents of the University of Minnesota, priority 1999, dated 2002)
In brackets after ≈: the same amount, converted by molar mass. Where a name gives a salt, the structure may show the parent alone. Read-outs that look alike come from different tables or passages of the source.

How the values were obtained:
[1] = system: Human laryngeal epithelial carcinoma cells (HEp-2); assay: Cytotoxicity in HEp-2 cells; format: cell-based; conditions: HEp-2 cells; conc. per compound (ng/ml)
Procedure: (§1) Human laryngeal epithelial carcinoma cells (HEp-2, ATCC, Rockville, Md.) were used for testing of antiviral compounds by cytopathic effect (CPE) inhibition and plaque reduction assay. […] HEp-2, African green monkey kidney cells (Vero, ATCC), HFF and primary rabbit kidney cells were used to determine the cytotoxic effect of compounds of formula I. These cells were propagated in Dulbeco's modified Eagle's medium (DMEM) (Sigma, USA) supplemented with 10% inactivated fetal calf serum (FCS), 25 mM HEPES, 0.2% sodium bicarbonate and 1% penicillin/-streptomycin at 37° C. in the presence of 5% CO2.
(§2) HFF, Vero and HEp-2 cells were seeded in 24-well tissue culture plates at a concentration of […] in DMEM containing 10% FCS and incubated for 24 hours at 37° C. in the presence of 5% CO2. To the monolayer of these cells 0.5, 1.0, 1.5 and 2.0 ml of solution of antiviral compounds were added in the respective wells in duplicate and the cells were then incubated in a 5% CO2 incubator at 37° C. for 72 hours. The cells were observed daily for any change in morphology. […] At the end of this time, the media-drug solution was removed and the cells washed. One ml of 0.25% trypsin was added to each well and incubated until the cells start to come off of the plate. The cells-media mixture was then pipetted up and down several times to resuspend the cells and 0.2 ml of the cell suspension was added to 9.8 ml of trypan blue and cells were counted using hemocytometer. Each sample was counted three times with three replicate wells per sample.

HSV-1 strain E-377 = assay: CPE inhibition assay, HSV-1 E377 in human foreskin fibroblast cells; as to Qualitative CPE at 2.0 ml dose HSV-1 E377: key: +++ = Complete cytopathic effect; ++ = Moderate cytopathic effect; + = Minimum cytopathic effect; − = No cytopathic effect; format: cell-based, herpes simplex virus type 1; conditions: for Qualitative CPE at 2.0 ml dose HSV-1 E377: solution conc. per compound (ng/ml) (Acyclovir 250); for EC50: Human alphaherpesvirus 1, HFF, read-out: EC50 HSV-1 E377
Procedure: (§3) Stock solutions of the compounds used for the testing of antiviral activity against HSV-1 and HSV-2 were prepared in distilled water, filtered through 0.2 μm filter (Acrodisco®, Gelman Sciences, USA) and stored at room temperature until used.
(§4) Human laryngeal epithelial carcinoma cells (HEp-2, ATCC, Rockville, Md.) were used for testing of antiviral compounds by cytopathic effect (CPE) inhibition and plaque reduction assay. Primary human foreskin fibroblast cells (HFF) obtained from Dr. E. R. Kern (Department of Pediatrics, University of Alabama Medical School, 309 Bevill Biomedical Research Building, 845 19th Street South, Birmingham, Ala., 35294-2170), were used for cytopathic effect (CPE) inhibition assay. HEp-2, African green monkey kidney cells (Vero, ATCC), HFF and primary rabbit kidney cells were used to determine the cytotoxic effect of compounds of formula I. These cells were propagated in Dulbeco's modified Eagle's medium (DMEM) (Sigma, USA) supplemented with 10% inactivated fetal calf serum (FCS), 25 mM HEPES, 0.2% sodium bicarbonate and 1% penicillin/-streptomycin at 37° C. in the presence of 5% CO2.
(§5) The antiviral activity of the test compounds was determined against HSV-1 strain F, HSV-2 strain G (ATCC), HSV-1 strain E-377 and HSV-2 strain MS (Dr. E. R. Kern, see above), CMV strain AD 169 (NIH), HCMV (NIH), MCMV (NIH), and VZV strain Ellen (NIH). Highly infective virus stocks of HSV-1 and HSV-2 were prepared by infecting a confluent monolayer of HEp-2 (ATCC) or HFF in 150 cm^2 plastic tissue culture flasks (Falcon, USA) at a multiplicity of infection of 0.5 in DMEM supplemented with 10% inactivated fetal calf serum and 1% penicillin/streptomycin at 37° C. in the presence of 5% CO2. The infected cells were disrupted through three freeze/thaw cycles, and viruses were clarified from large cell debris by low speed centrifugation at 3000 rpm for 10 minutes. The virus suspension was separated, aliquoted and stored at −80° C. until assayed or used for animal infection. The stock HSV-1 (E377) and HSV-2 (MS strain) contained 3.5×10^8 and 1.1×10^7 pfu/ml respectively.
(§6) Low passage HFF cells were seeded into 96-well tissue culture plates 24 hours prior to use at a cell concentration of 2.5×10^4 cells per ml in 0.2 ml of DMEM supplemented with 10% fetal calf serum. After 24 hours of incubation at 37° C. in the presence of 5% CO2, medium was removed and the test compounds were diluted two-fold in DMEM in the 96-well tissue culture plate containing monolayer. […] For both HSV-1 and HSV-2 assays, the virus concentration utilized was 1000 pfu/ml and for HCMV, MCMV, and VZV assay 2500 pfu/ml were used. The plates were then incubated at 37° C. in the presence of 5% CO2 for two to three days for HSV-1 and HSV-2, 10 days for VZV and 14 days for HCMV and MCMV. The virus induced cytopathic effect (CPE) was monitored microscopically every day. CPE of HSV-1 was recognized by cell rounding and clumping, while HSV-2 formed large syncytia along with rounding and clumping of cells. […] EC50s were estimated from graphical plots of percent CPE against the concentration of the test compounds. The EC50s for each compound are the mean of EC50s for three or more independent experiments. After three days of incubation period, media was aspirated and the cells stained with a 0.1% crystal violet solution for 30 minutes. The stain was then removed and the plates were rinsed with tap water, air dried and retained.

[2] = Cell proliferation assay (cytotoxicity) in HFF cells; format: cell-based, human; conditions: Human foreskin fibroblast cells, reduces growth of uninfected cells by 50%
Procedure: as §1, §2

[3] = system: Primary human foreskin fibroblast cells (HFF); assay: as above; format: cell-based; conditions: for Qualitative Cytotoxic Effect at 2.0 ml dose: HFF cells, solution conc. per compound (ng/ml) (Acyclovir 250); for CC50: Human foreskin fibroblast cells, reduces growth of uninfected cells by 50%
Procedure: as §1, §2

HSV-1 strain F = assay: CPE inhibition, HSV-1 strain F in HEp-2 cells; also: key: +++ = Complete cytopathic effect; ++ = Moderate cytopathic effect; + = Minimum cytopathic effect; − = No cytopathic effect; format: cell-based, herpes simplex virus type 1; conditions: conc. per compound (ng/ml)
Description: as §4, §5, §6

HSV-2 strain G = assay: CPE inhibition, HSV-2 strain G in HEp-2 cells; also: key: +++ = Complete cytopathic effect; ++ = Moderate cytopathic effect; + = Minimum cytopathic effect; − = No cytopathic effect; format: cell-based, herpes simplex virus type 2; conditions: conc. per compound (ng/ml)
Description: as §4, §5, §6

HSV-2 strain MS = assay: CPE inhibition assay, HSV-2 MS in human foreskin fibroblast cells; as to Qualitative CPE at 2.0 ml dose HSV-2 MS: key: +++ = Complete cytopathic effect; ++ = Moderate cytopathic effect; + = Minimum cytopathic effect; − = No cytopathic effect; format: cell-based, herpes simplex virus type 2; conditions: for Qualitative CPE at 2.0 ml dose HSV-2 MS: HFF cells, solution conc. per compound (ng/ml) (Acyclovir 250); for EC50: Human alphaherpesvirus 2, HFF, read-out: EC50 HSV-2 MS
Procedure: as §3, §4, §5, §6

Human Cytomegalovirus = assay: CPE inhibition in stationary cells (visual), HCMV in HFF cells; format: cell-based; conditions: test compounds in DMSO
Varicella-Zoster Virus = assay: CPE inhibition in stationary cells (visual), VZV in HFF cells; format: cell-based; conditions: test compounds in DMSO
Epstein-Barr Virus = assay: VCA expression in EBV-infected Daudi cells; conditions: Epstein-Barr Virus, Daudi cells, VCA; test compounds in DMSO
Description: Raji is a Burkitt's lymphoma cell line containing 60 EBV genome/cell, and was the primary cell used for screening antiviral activity against EBV early antigen (EA) expression. […] It spontaneously expresses EBV EA in 0.25-0.5% of the cells. It was used in follow-up studies to confirm activity. These cell lines respond to superinfection by EBV by expressing EA-diffuse component EA (D), EA restricted component EA (R), and viral capsid antigen (VCA). […] The cultures were fed twice weekly and the cell concentration was adjusted to 3×10^5/ml. The cells were kept at 37° C. in humidified atmosphere with 5% CO2.
Cells were infected with the P3HR-1 strain of HBV and the test compound was added after adsorption (45 minutes at 37° C.) and washing of the cell cultures. The cultures were incubated for two days in complete medium to allow viral gene expression. Following the 48 hours of incubation, the numbers of cells of each sample was counted and smears were made. Monoclonal antibodies to the different EA components and VCA were then added to the cells and then incubated and washed. This is followed by a fluorescein conjugated rabbit anti-mouse IgG antibody, and the number of fluorescence cells in the smear were counted. The total number of cells in the cultures positive for EA or VCA were then calculated and compared.

[4] = primary human foreskin fibroblast (HFF) cells

Molecule	Cell Cytotoxicity [1]	melting point	Cytopathic Effect (CPE) Inhibition HSV-1 Strain F (HSV-1 strain F)	Cytopathic Effect (CPE) Inhibition HSV-2 Strain G (HSV-2 strain G)	EC50 HSV-1 E377 (HSV-1 strain E-377; CPE inhibition in HFF cells) [ng/mL]	CC50 [3] [ng/mL]	EC50 HSV-2 MS (HSV-2 strain MS; CPE inhibition in HFF cells) [ng/mL]	further results
CC1(C)CCC23CC[C@]4(C)C(CCC5[C@@]6(C)C=C(O)C(=O)C(C)(C)C6CC[C@]54C)C2C1OC3 (stereo partly drawn) [Allobetulon-1,2-ene-2-ol, Allobetulon 1,2-ene-2-ol.]	−	236.8 to 238.8 °C	++	++				Qualitative CPE at 2.0 ml dose HSV-1 E377 (HSV-1 strain E-377; HFF cells): +++; EC50 (HSV-1 strain E-377; CPE inhibition in HFF cells): 0.22 µg/mL (≈ 0.484 µM); CC50 at 72 h [2, 4]: 0.22 µg/mL (≈ 0.484 µM); Qualitative Cytotoxic Effect at 2.0 ml dose [3]: −; Qualitative CPE at 2.0 ml dose HSV-2 MS (HSV-2 strain MS): +++; EC50 (HSV-2 strain MS; CPE inhibition in HFF cells): 0.165 µg/mL (≈ 0.363 µM)
CC1(C)CCC23CC[C@]4(C)C(CCC5[C@@]6(C)C=C(O)C(=O)C(C)(C)C6CC[C@]54C)C2C1OC3=O (stereo partly drawn) [Example 13, Allobetulonlacton 1-ene-2-ol]		238.8 to 243.6 °C (dec.)						
CC1(C)CCC23CC[C@]4(C)C(CCC5[C@@]6(C)CCC(=O)C(C)(C)C6CC[C@]54C)C2C1OC3=O (stereo partly drawn) [Example 10, Allobetulon Lactone]		333.7 to 335.9 °C (dec.)						
Betulin glycerol oxalate								EC50 (Human Cytomegalovirus): >100.00 ng/mL; EC50 (Varicella-Zoster Virus): >20.0 ng/mL; EC50 (Epstein-Barr Virus): 7.2 ng/mL
CC1(C)CCC23CC[C@@]4(C)C(CCC5[C@@]6(C)CCC(OP(=O)(O)O)C(C)(C)C6CC[C@]54C)C2C1OC3 (stereo partly drawn) [Allobetulin 3-phosphate, Allobetulin Phosphate]	−		+++	++	>250	>125	250	anti HSV-1 activity (in words) (HSV-1 strain E-377; HFF cells, HSV-1 (E377)): significant activity
Allobetulin ethanolamine					>250	200	>250	
CC1(C)CCC23CCC4(C)C(CCC5C6(C)CCC(OC(=O)CCC(=O)O)C(C)(C)C6CCC54C)C2C1OC3 (stereo not drawn) [Allobetulin Succinate, Allobetulin, 3-Succinate]	−		++	+	>250	>250	>250	
CC1(C)CCC23CC[C@]4(C)C(CCC5[C@@]6(C)CC(Br)C(=O)C(C)(C)C6CC[C@]54C)C2C1OC3=O (stereo partly drawn) [Example 12, 2-Br-Allobetulonlacton]		338 to 342.8 °C (dec.)						
CC1(C)CCC23CC[C@]4(C)C(CCC5[C@@]6(C)CCC(=O)C(C)(C)C6CC[C@]54C)C2C1OC3 (stereo partly drawn) [Allobetulon]	−		++	++				Qualitative CPE at 2.0 ml dose HSV-1 E377 (HSV-1 strain E-377; HFF cells): +++; EC50 (HSV-1 strain E-377; CPE inhibition in HFF cells): 0.3 µg/mL (≈ 0.681 µM); CC50 at 72 h [2, 4]: 0.3 µg/mL (≈ 0.681 µM); Qualitative Cytotoxic Effect at 2.0 ml dose [3]: −; Qualitative CPE at 2.0 ml dose HSV-2 MS (HSV-2 strain MS): +++; EC50 (HSV-2 strain MS; CPE inhibition in HFF cells): 0.3 µg/mL (≈ 0.681 µM)
CC1(C)CCC23CCC4(C)C(CCC5C6(C)CCC(OC(=O)CO)C(C)(C)C6CCC54C)C2C1OC3 (stereo not drawn) [Allobetulin 3-glycolate, Allobetulin, 3-Glycolate]	−		+++	++	>250	>250	125 (≈ 0.25 µM)	
CC1(C)CCC23CCC4(C)C(CCC5C6(C)CCC(OC(=O)c7ccccc7C(=O)O)C(C)(C)C6CCC54C)C2C1OC3 (stereo not drawn) [Allobetulin 3-phthalate, Allobetulin, 3-Phthalate]	−		++	++	>250	>250	250 (≈ 0.423 µM)	
Cc1ccc(S(=O)(=O)OC2CC[C@@]3(C)C(CC[C@]4(C)C3CCC3C5C6OCC5(CCC6(C)C)CC[C@]34C)C2(C)C)cc1 (stereo partly drawn) (as salt: tosylate) [Example 9, Allobetulin Tosylate]		180 to 182.6 °C (dec.)						
Allobetulin ethanolamine chlorohydrate					125	125	125	
CC(=O)OC1CCC2(C)C(CCC3(C)C2CCC2C4C5OC(=O)C4(CCC5(C)C)CCC23C)C1(C)C (stereo not drawn) [3β-Acetoxy-19αH-19,28lactone-oleanan, Allobetulin-3-acetyl lactone (3β-Acetoxy-19αH-19,28-lactone-oleanane)]	−		++	++	225 (≈ 0.451 µM)	225 (≈ 0.451 µM)	125 (≈ 0.251 µM)	Qualitative CPE at 2.0 ml dose HSV-1 E377 (HSV-1 strain E-377; HFF cells): +++; Qualitative Cytotoxic Effect at 2.0 ml dose [3]: +; Qualitative CPE at 2.0 ml dose HSV-2 MS (HSV-2 strain MS): ++
CC1(C)CCC23CC[C@]4(C)C(CCC5[C@@]6(C)CCC(O)C(C)(C)C6CC[C@]54C)C2C1OC3=O (stereo partly drawn) [Allobetulin lactone, Allobetulin-Lactone]	−		+++	++				EC50 (HSV-1 strain E-377): > 0.125 µg/mL; CC50 at 72 h [2]: > 0.125 µg/mL; EC50 (HSV-2 strain MS): 0.2 µg/mL (≈ 0.438 µM)
